Assay results reported in a compilation of properties of binary mixtures (doi:10.1021/acs.jpcc.9b06000).

Assay: xn = mol fraction of the nth substance listed
Settings: 101 kPa

FC1CC(F)(F)C(F)(F)C1(F)F (centres undefined) + CCCC[N+]1(C)CCCC1.FC(F)(F)C(F)(F)[P-](F)(F)(F)(C(F)(F)C(F)(F)F)C(F)(F)C(F)(F)F
Settings | electrical conductivity [S/m] | viscosity [mPa·s]
298.1 K, x2 = 0.035 | 0.402 | –
298.1 K, x2 = 0.077 | 0.514 | –
298.1 K, x2 = 0.122 | 0.605 | –
298.1 K, x2 = 0.127 | – | 3.91
298.1 K, x2 = 0.18 | 0.678 | –
298.1 K, x2 = 0.248 | 0.569 | –
298.1 K, x2 = 0.334 | 0.489 | –
298.1 K, x2 = 0.437 | 0.351 | –
298.1 K, x2 = 0.656 | – | 54.8
298.1 K, x2 = 0.841 | – | 112.6
303 K, x2 = 0.035 | 0.428 | –
303 K, x2 = 0.077 | 0.554 | –
303 K, x2 = 0.08 | – | 2.72
303 K, x2 = 0.122 | 0.656 | –
303 K, x2 = 0.248 | 0.638 | –
303 K, x2 = 0.331 | 0.572 | –
303 K, x2 = 0.338 | – | 11.23
303 K, x2 = 0.653 | 0.33 | –
303 K, x2 = 0.659 | – | 45
308.1 K, x2 = 0.032 | 0.453 | –
308.1 K, x2 = 0.08 | – | 2.37
308.1 K, x2 = 0.125 | 0.717 | –
308.1 K, x2 = 0.183 | 0.812 | –
308.1 K, x2 = 0.248 | 0.703 | –
308.1 K, x2 = 0.331 | 0.641 | –
308.1 K, x2 = 0.437 | 0.478 | 15.23
308.1 K, x2 = 0.656 | 0.38 | 37
308.1 K, x2 = 0.839 | 0.254 | –
308.1 K, x2 = 0.844 | – | 68.1
313 K, x2 = 0 | – | 1.28
313 K, x2 = 0.035 | 0.482 | –
313 K, x2 = 0.077 | 0.638 | –
313 K, x2 = 0.122 | 0.772 | –
313 K, x2 = 0.251 | 0.764 | –
313 K, x2 = 0.334 | 0.714 | –
313 K, x2 = 0.338 | – | 8.03
313 K, x2 = 0.437 | 0.54 | –
313 K, x2 = 0.653 | 0.449 | –
313 K, x2 = 0.655 | – | 28.8
313 K, x2 = 0.839 | 0.297 | –
313 K, x2 = 0.841 | – | 54.5
318.1 K, x2 = 0.08 | – | 1.95
318.1 K, x2 = 0.125 | 0.83 | –
318.1 K, x2 = 0.183 | 0.949 | –
318.1 K, x2 = 0.248 | 0.826 | –
318.1 K, x2 = 0.338 | 0.786 | –
318.1 K, x2 = 0.431 | 0.609 | –
318.1 K, x2 = 0.653 | 0.511 | –
318.1 K, x2 = 0.84 | – | 44.8
323 K, x2 = 0 | – | 1.08
323 K, x2 = 0.039 | 0.543 | –
323 K, x2 = 0.077 | 0.75 | –
323 K, x2 = 0.122 | 0.906 | –
323 K, x2 = 0.183 | 1.04 | 3.12
323 K, x2 = 0.248 | 0.899 | –
323 K, x2 = 0.331 | 0.851 | –
323 K, x2 = 0.335 | – | 6.61
323 K, x2 = 0.434 | 0.703 | –
323 K, x2 = 0.653 | 0.591 | –
323 K, x2 = 0.839 | 0.417 | –
323 K, x2 = 0.84 | – | 36.8
